Measurements taken from ChEMBL document CHEMBL5385969, “Design, synthesis, in vitro and in silico evaluation of indole-based tetrazole derivatives as putative anti-breast cancer agents” (RSC Med Chem, 2024).

Assays:
MDA-MB-231 = assay: cells; conditions: Homo sapiens, MDA-MB-231, 48 h
Description: Antiproliferative activity against human MDA-MB-231 cells assessed as inhibition of cell growth incubated for 48 hrs by MTT assay

MCF7 = assay: cells; conditions: Homo sapiens, MCF7, 48 h
Description: Antiproliferative activity against human MCF7 cells assessed as inhibition of cell growth incubated for 48 hrs by MTT assay

T47D = assay: cells; conditions: Homo sapiens, 48 h
Description: Antiproliferative activity against human T47D cells assessed as inhibition of cell growth incubated for 48 hrs by MTT assay

[1] = Cytotoxicity against human HEK293 cells incubated for 48 hrs by MTT assay; assay type: toxicity, cell-based

| Structure (SMILES) | IC50 (MDA-MB-231) [µM] | IC50 (MCF7) [µM] | IC50 (T47D) [µM] | IC50 at 48 h [1] [µM] |
| --- | --- | --- | --- | --- |
| Clc1ccc(Cn2nnc(-c3cn(Cc4ccccc4)c4ccccc34)n2)cc1Cl | 19.4 | 7.95 | 10 | > 125 |
| Cc1ccc(Cn2nnc(-c3cn(Cc4ccccc4)c4ccccc34)n2)cc1 | 13.4 | 11.3 | 10.1 |  |
| Cc1ccc(Cn2nnc(-c3cn(Cc4ccc(C)cc4)c4ccccc34)n2)cc1 | 15.8 | > 25 | > 25 |  |
| Cc1ccc(Cn2nnnc2-c2cn(Cc3ccc(C)cc3)c3ccccc23)cc1 | 9.72 | 20.6 | 23.7 |  |
| Cc1ccc(Cn2cc(-c3nnn(Cc4ccc(Cl)c(Cl)c4)n3)c3ccccc32)cc1 | 14.9 | 8.73 | 23.9 |  |
| Cc1ccc(Cn2cc(-c3nnn(Cc4ccc(Cl)cc4Cl)n3)c3ccccc32)cc1 | 16.7 | 16.6 | 10.6 |  |
| c1ccc(Cn2cc(-c3nnn[nH]3)c3ccccc32)cc1 | 16.6 | > 25 | 24.4 |  |
| Cc1ccc(Cn2cc(-c3nnnn3Cc3cccc(Cl)c3)c3ccccc32)cc1 | 8.52 | 14.8 | 20 |  |
| Cc1ccc(Cn2cc(-c3nnn(Cc4ccccc4)n3)c3ccccc32)cc1 | 8.2 | 11.9 | 15.8 |  |
| COc1cccc(Cn2nnc(-c3cn(Cc4ccccc4)c4ccccc34)n2)c1 | 15.9 | 3.08 | 16.5 |  |
| Cc1ccc(Cn2cc(-c3nnnn3Cc3ccccc3)c3ccccc32)cc1 | 9.62 | 9.93 | 14.5 |  |
| Clc1ccc(Cn2nnc(-c3cn(Cc4ccccc4)c4ccccc34)n2)c(Cl)c1 | 7.69 | 12.7 | 10.9 |  |
| Clc1cccc(Cn2nnc(-c3cn(Cc4ccccc4)c4ccccc34)n2)c1 | 18.8 | 14.2 | 11.7 |  |
| Cc1ccc(Cn2cc(-c3nnn[nH]3)c3ccccc32)cc1 | 13.8 | 9.99 | 14.1 |  |
| Fc1ccc(Cn2nnc(-c3cn(Cc4ccccc4)c4ccccc34)n2)cc1 | 12.9 | 22.7 | 17.8 |  |
| Cc1c(-c2ccc(O)cc2)n(Cc2ccc(OCCN3CCCCCC3)cc2)c2ccc(O)cc12 [BAZEDOXIFENE] | 6.73 | 7.31 | 14.2 | 38.5 |
| Clc1ccc(Cn2nnc(-c3cn(Cc4ccccc4)c4ccccc34)n2)cc1 | 15.7 | 7.83 | 3.83 | 109 |
| Cc1ccc(Cn2cc(-c3nnn(Cc4ccc(F)cc4)n3)c3ccccc32)cc1 | 13.1 | 13.3 | 15.8 |  |
| Cc1ccc(Cn2cc(-c3nnn(Cc4ccc(Cl)cc4)n3)c3ccccc32)cc1 | 11.6 | 16.4 | 18.8 |  |
| COc1cccc(Cn2nnc(-c3cn(Cc4ccc(C)cc4)c4ccccc34)n2)c1 | 12.1 | 15.1 | > 25 |  |
| Cc1ccc(Cn2cc(-c3nnn(Cc4cccc(Cl)c4)n3)c3ccccc32)cc1 | 12.8 | 13.2 | 14.2 |  |
| c1ccc(Cn2nnc(-c3cn(Cc4ccccc4)c4ccccc34)n2)cc1 | 14.7 | 9.24 | 13.5 |  |
| Cc1ccc(Cn2cc(-c3nnnn3Cc3ccc(Cl)c(Cl)c3)c3ccccc32)cc1 | 12.4 | 10.2 | 9.01 |  |
| Cc1ccc(Cn2cc(-c3nnnn3Cc3ccc(Cl)cc3Cl)c3ccccc32)cc1 | 11.2 | 8.32 | 8.15 |  |
